In US12435057B2, “Triazole carboxylic acids as LPA antagonists” (BRISTOL-MYERS SQUIBB COMPANY, priority 2019, dated 2025):
pIC50: −log10 of the molar value. Structures can show the parent of a compound that is named as a salt.

Biological target: T1, human LPA1 (Homo sapiens, UniProt Q92633)
T1 construct: expressed in transfected cells; host or cells: Chinese hamster ovary (CHO) cells
Test: LPA1 functional antagonist assay (calcium flux)
Format: cell-based
Conditions: CHO cells overexpressing human LPA1; inhibition of calcium flux induced by 10 nM LPA; read-out: hLPA1 IC50
Experimental: The effectiveness of compounds of the present invention as LPA1 inhibitors can be determined in an LPA1 functional antagonist assay as follows: • Chinese hamster ovary cells overexpressing human LPA1 were plated overnight (15,000 cells/well) in poly-D-lysine coated 384-well microplates (Greiner bio-one, Cat #781946) in DMEM/F12 medium (Gibco, Cat #11039). Following overnight culture, cells were loaded with calcium indicator dye (AAT Bioquest Inc, Cat #34601) for 30 minutes at 37° C. The cells were then equilibrated to room temperature for 30 minutes before the assay. Test compounds solubilized in DMSO were transferred to 384 well non-binding surface plates (Corning, Cat #3575) using the Labcyte Echo acoustic dispense and diluted with assay buffer [[…] with calcium/magnesium (Gibco Cat #14025-092), 20 mM HEPES (Gibco Cat #15630-080) and 0.1% fatty acid free BSA (Sigma Cat #A9205)] to a final concentration of 0.5% DMSO. Diluted compounds were added to the cells by FDSS6000 (Hamamatsu) at final concentrations ranging from 0.08 nM to 5 μM. and were then incubated for 20 min at room temperature at which time LPA (Avanti Polar Lipids Cat #857130C) was added at final concentrations of 10 nM to stimulate the cells. The compound IC50 value was defined as the concentration of test compound which inhibited 50% of the calcium flux induced by LPA alone. IC50 values were determined by fitting data to a 4-parameter logistic equation (GraphPad Prism, San Diego CA). b. In Vivo Assays LPA Challenge with Plasma Histamine Evaluation.

T1 sequence (Q92633 whole entry): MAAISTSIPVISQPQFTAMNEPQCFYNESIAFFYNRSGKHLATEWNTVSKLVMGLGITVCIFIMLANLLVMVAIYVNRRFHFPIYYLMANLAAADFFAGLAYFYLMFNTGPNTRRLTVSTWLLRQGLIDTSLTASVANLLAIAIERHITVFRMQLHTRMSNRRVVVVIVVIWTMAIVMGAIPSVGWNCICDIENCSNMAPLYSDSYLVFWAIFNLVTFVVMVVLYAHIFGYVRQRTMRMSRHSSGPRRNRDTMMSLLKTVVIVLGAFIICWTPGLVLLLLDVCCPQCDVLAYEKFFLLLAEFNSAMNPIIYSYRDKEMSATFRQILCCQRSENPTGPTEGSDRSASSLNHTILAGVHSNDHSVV

Compound | pIC50
Cc1nc(-c2nnn(C)c2COC(=O)N(C)CC2CCC2)ccc1O[C@H]1CC[C@@H]2[C@@H](C(=O)O)[C@@H]21 (single isomer, unassigned) [Example 43] | 7.82
Cc1nc(-c2nnn(C)c2COC(=O)N(C)CC2CCC2)ccc1O[C@@H]1CC[C@H]2[C@@H](C(=O)O)[C@H]21 (racemic) [Example 49, (±)-(1S,2R,5R,6R)-2-((6-(5-((((Cyclobutylmethyl)(methyl)carbamoyl)oxy)methyl)-1-methyl-1H-1,2,3-triazol-4-yl)-2-methylpyridin-3-yl)oxy)bicyclo[3.1.0]hexane-6-carboxylic Acid] | 6.79
Cc1nc(-c2nnn(C)c2COC(=O)N(C)Cc2ccccc2)ccc1O[C@H]1COC[C@@H](C(=O)O)C1 [Example 29] | 6.23
Cc1nc(-c2nnn(C)c2COC(=O)N(C)CC2CCC2)ccc1O[C@H]1CC2C[C@H]2[C@@H](C(=O)O)C1 (mixture of isomers) [Example 7, (±)-(1R,2S,4S,6R)-4-((6-(5-((((cyclobutylmethyl)(methyl)carbamoyl)oxy)methyl)-1-methyl-1H-1,2,3-triazol-4-yl)-2-methylpyridin-3-yl)oxy)bicyclo[4.1.0]heptane-2-carboxylic Acid] | 7.40
Cc1nc(-c2nnn(C)c2COC(=O)N(C)C2CCCC2)ccc1O[C@H]1CCO[C@H](C(=O)O)C1 [Example 39] | 6.50
Cc1nc(-c2nnn(C)c2COC(=O)N(C)CC2CCC2)ccc1O[C@@H]1CCC[C@@]2(C(=O)O)C[C@@H]12 (racemic) [Example 10, (±)-(1R,5R,6R)-5-((6-(5-((((cyclobutylmethyl)(methyl)carbamoyl)oxy)methyl)-1-methyl-1H-1,2,3-triazol-4-yl)-2-methylpyridin-3-yl)oxy)bicyclo[4.1.0]heptane-1-carboxylic Acid] | 6.73
Cc1nc(-c2nnn(C)c2COC(=O)N(C)CC2CC2)ccc1O[C@@H]1CC[C@H]2C(C(=O)O)[C@@H]12 (stereo partly shown) [Example 59] | 6.50
Cc1nc(-c2nnn(C)c2CNc2nccc(OC3CC3)n2)ccc1OC1CC[C@H]2C(C(=O)O)[C@@H]12 (mixture of isomers) [Example 50, (±)-(1S,2R,5R,6R)-2-((6-(5-(((4-Cyclopropoxypyrimidin-2-yl)amino)methyl)-1-methyl-1H-1,2,3-triazol-4-yl)-2-methylpyridin-3-yl)oxy)bicyclo[3.1.0]hexane-6-carboxylic Acid] | 6.98
CCCCCN(C)C(=O)OCc1c(-c2ccc(O[C@H]3COC[C@@H](C(=O)O)C3)c(C)n2)nnn1C [Example 31] | 8.64
Cc1nc(-c2nnn(C)c2COC(=O)N(C)CC2CCC2)ccc1O[C@H]1C[C@@H]2C[C@@H]2[C@@H](C(=O)O)C1 (single isomer, unassigned) [Example 4] | 6.04
CN(C(=O)OCc1c(-c2ccc(OC3CC4C(C3)C4C(=O)O)cn2)nnn1C)C1CCCC1 (stereo not shown) [Example 65] | 6.36
CCCN(C)C(=O)OCc1c(-c2ccc(O[C@@H]3COC[C@@H](C(=O)O)C3)c(C)n2)nnn1C (racemic) [Example 17, (±)-trans-5-((2-methyl-6-(1-methyl-5-(((methyl(propyl)carbamoyl)oxy)methyl)-1H-1,2,3-triazol-4-yl)pyridin-3-yl)oxy)tetrahydro-2H-pyran-3-carboxylic Acid, TFA Salt] | 6.03
Cc1nc(-c2nnn(C)c2CNC(=O)OCC(C)(C)C)ccc1O[C@@H]1CCC2C(C(=O)O)C21 (stereo partly shown) [Example 54] | 6.56
CCCCN(C)C(=O)OCc1c(-c2ccc(O[C@H]3COC[C@@H](C(=O)O)C3)c(C)n2)nnn1C [Example 30] | 6.63
CCCN(C)C(=O)OCc1c(-c2ccc(O[C@H]3CCO[C@H](C(=O)O)C3)c(C)n2)nnn1C [Example 38] | 5.70
Cc1nc(-c2nnn(C)c2NC(=O)OCC2CC2)ccc1O[C@@H]1CC[C@H]2C(C(=O)O)[C@@H]12 (mixture of isomers) [Example 52, (±)-(1S,2R,5R,6R)-2-((6-(5-(((cyclopropylmethoxy)carbonyl)amino)-1-methyl-1H-1,2,3-triazol-4-yl)-2-methylpyridin-3-yl)oxy)bicyclo[3.1.0]hexane-6-carboxylic Acid] | 5.77
Cc1nc(-c2nnn(C)c2CNC(=O)OCc2ccccc2)ccc1O[C@@H]1CCC2C(C(=O)O)C21 (stereo partly shown) [Example 53] | 7.80

More lines, in order of rising pIC50, values ahead:

pIC50 | Compound
5.70 | Cc1nc(-c2nnn(C)c2COC(=O)N(C)CC2CCC2)ccc1O[C@H]1CC[C@@H]2[C@@H](C(=O)O)[C@@H]21 (single isomer, unassigned) [Example 46]
6.03 | Cc1nc(-c2nnn(C)c2Cn2nncc2CC2CCCC2)ccc1O[C@H]1COC[C@H](C(=O)O)C1 [Example 25]
6.11 | Cc1nc(-c2nnn(C)c2Cn2cc(CC3CCCC3)nn2)ccc1O[C@H]1COC[C@H](C(=O)O)C1 [Example 26]
6.15 | Cc1nc(-c2nnn(C)c2COC(=O)N(C)C2CCCC2)ccc1O[C@H]1CCO[C@@H](C(=O)O)C1 [Example 36]
6.46 | Cc1nc(-c2nnn(C)c2COC(=O)N(C)CC2CCC2)ccc1O[C@H]1COC[C@@H](C(=O)O)C1 [Example 32]
6.65 | CCCCN(C)C(=O)OCc1c(-c2ccc(O[C@H]3CCO[C@H](C(=O)O)C3)c(C)n2)nnn1C [Example 37]
6.65 | Cc1nc(-c2nnn(C)c2COC(=O)N(C)CC2CCCC2)ccc1OC1COCC(C(=O)O)C1 (racemic) [Example 28, (±)-trans-5-((6-(5-((((cyclopentylmethyl)(methyl)carbamoyl)oxy)methyl)-1-methyl-1H-1,2,3-triazol-4-yl)-2-methylpyridin-3-yl)oxy)tetrahydro-2H-pyran-3-carboxylic Acid, TFA Salt]
6.75 | Cc1nc(-c2nnn(C)c2COC(=O)N(C)Cc2ccccc2)ccc1O[C@@H]1COC[C@@H](C(=O)O)C1 [Example 22B]
6.77 | Cc1nc(-c2nnn(C)c2COC(=O)N(C)CC2CCC2)ccc1O[C@@H]1COC[C@@H](C(=O)O)C1 [Example 21]
6.80 | Cc1nc(-c2nnn(C)c2COC(=O)N(C)CC2CCC2)ccc1O[C@H]1CCO[C@H](C(=O)O)C1 [Example 40]
6.80 | CCCCCOC(=O)Nc1c(-c2ccc(O[C@H]3COC[C@H](C(=O)O)C3)c(C)n2)nnn1C (racemic) [Example 23, (±)-trans-5-((2-methyl-6-(1-methyl-5-(((pentyloxy)carbonyl)amino)-1H-1,2,3-triazol-4-yl)pyridin-3-yl)oxy)tetrahydro-2H-pyran-3-carboxylic Acid, TFA Salt]
6.82 | CCCCCN(C)C(=O)OCc1c(-c2ccc(O[C@@H]3COC[C@@H](C(=O)O)C3)c(C)n2)nnn1C [Example 19]
6.94 | CN(C(=O)OCc1c(-c2ccc(O[C@@H]3CC[C@H]4C(C(=O)O)[C@@H]34)cn2)nnn1C)C1CCCC1 (stereo partly shown) [Example 71]
7.01 | Cc1nc(-c2nnn(C)c2COC(=O)N(C)C2CCC2)ccc1O[C@@H]1CC[C@H]2C(C(=O)O)[C@@H]12 (stereo partly shown) [Example 61]
7.04 | Cc1nc(-c2nnn(C)c2COC(=O)N(C)CC2CCC2)ccc1O[C@@H]1CC[C@H]2C(C(=O)O)[C@@H]12 (single isomer, unassigned) [Example 45]
7.34 | CCCCN(C)C(=O)OCc1c(-c2ccc(O[C@@H]3CC[C@H]4C(C(=O)O)[C@@H]34)c(C)n2)nnn1C (stereo partly shown) [Example 58]
7.80 | Cc1nc(-c2nnn(C)c2COC(=O)N(C)CC2CCC2)ccc1O[C@@H]1CC2C[C@H]2[C@H](C(=O)O)C1 (single isomer, unassigned) [Example 3]
